Experimental data reported in patent US6867015B1, “Rapid microbiological test for the detection of antibacterial compounds” (Gist-Brocades B.V., priority 1995, dated 2005).

Experiments:
Type in all cases: cell-based
[1] = test system: Bacillus stearothermophilus var. calidolactis C953 spores; assay: Test type A: agar test tubes with bromocresolpurple and nutrient tablet, milk sample; details: fresh cow's milk, 64° C.
Protocol: Test tubes of type A contained an agar medium prepared as follows: A solution was made of 12 g agar, 9 g sodium chloride and 50 ml of a 0.1 M triethanolamine buffer solution (pH=8.0) in 1000 ml distilled water. An amount of a solution of bromocresolpurple to give a final concentration of 20 mg per 1000 ml was also added. The final solution was sterilized for 20 minutes at 121° C. and cooled to about 60° C. To this solution different amounts of a suspension of Bacillus stearothermophilus var. calidolactis […] spores in distilled water were added to give final concentrations between 10^5 and 10^10 spores per ml. Sterile tubes with a diameter of about 9 mm were filled with 0.3 ml of the agar solution under aseptic conditions and immediately sealed, e.g. with aluminium foil. The agar solution in the test tubes was allowed to solidify in the test tubes while the test tubes were held in an upright position. The tubes were stored at a temperature between 5° C. and 15° C. A mixture was made of 100 g dextrose, 160 g Avicel PH101, 50 g tryptose, 14 g yeast extract and 15 g precirol. This mixture was sufficient to prepare about 18000 tablets with a diameter of approximately 3 mm and a thickness of approximately 1.9 mm. […] The time at which the colour of the agar medium became yellow was determined. […]

[2] = test system: Bacillus stearothermophilus var. calidolactis C953 spores; assay: Test type B: agar test tubes with Brilliant Black and Toluidine Blue, milk sample
Protocol: Test tubes of type B contained an agar medium prepared as follows: A solution was made of 10 g agar, 9 g sodium chloride, 2 g glucose, 2 g peptone, 2 g tryptone, 4 g yeast extract and 50 ml of a 0.1 M triethanolamine buffer solution (pH=8.0) in 1000 ml distilled water. The final solution was sterilized for 20 minutes at 121° C. and cooled to about 60° C. An amount of a solution of Brilliant Black to give a final concentration of 80 mg per 1000 ml and an amount of a solution of Toluidine Blue to give a final concentration of 3 mg per 1000 ml were also added. To this solution different amounts of a suspension of Bacillus stearothermophilus var. caildolactis C953 spores In distilled water were added to give final concentrations between 10^8 and 10^10 spores per ml. Sterile tubes with a diameter of about 9 mm were filled with 0.3 ml of the agar solution under aseptic conditions and Immediately sealed e.g. with an aluminum foil. The agar solution In the test tubes was allowed to solidity in the test tubes while the test tubes were held in an upright position. The tubes were stored at a temperature between 5° C. and 15° C. An amount of penicillin G of 0.003 I.U. per ml was added to fresh cow's milk. The control sample contained no penicillin G. Two of each of the test tubes of type B with concentrations of Bacillus stearothermophilus var. calidolactis spores as described in Example II were opened by removing the seal. Then 0.1 ml of each of the two milk samples was added to each of the test tubes and the test tubes were immediately placed in a waterbath kept at 64° C. Observations were made after 30 minutes to 3 hours. The time at which the colour of the agar medium became yellow was determined. As is shown in Table 1, the test duration correlated with the amount of spores added to the agar medium without influencing the sensitivity of the test in a negative way.

[3] = test system: Bacillus stearothermophilus var. calidolactis spores C953; assay: Test type C: microtiterplates with agar medium containing trimethoprim, milk sample
Protocol: For the preparation of the test plates (test type C) the procedure described in Example I was followed except that the nutrients described in Example III (dextrose, tryptose and yeast extract) were not added separately but were added to the initial agar medium in the same concentration as described in Example I. Also together with the buffer solution an amount of trimethoprim solution was added to give a final concentration of 60 μg per litre. To the wells of sterile microtiterplates 20 μl of the agar solution was added under asceptic conditions. The plates were immediately sealed with aluminium foil. The plates were stored at a temperature between 5° C. and 15° C. An amount of penicillin G of 3 ppb was added to fresh cow's milk. […] The control sample contained no penicillin G or sulphadiazine. The microtiterplates were opened by removing the seal. Then 20 μl of each of the three milk samples was added to each of the test plates (duplo) containing different concentrations of Bacillus stearothermophilus var. calidolactis spores […]. The plates were immediately placed in a waterbath kept at 64° C. Observations were made after 30 minutes to 150 minutes. The time at which the colour of the agar medium became yellow was determined. As is shown in table 2, the test duration correlated with the amount of spores added to the agar medium without influencing the sensitivity of the test in a negative way.

[4] = test system: Streptococcus thermophilus T101 (DSM 4022); assay: Test type D: detection of antibiotics in milk without agar, bromocresolpurple; details: test duration of 80 minutes
Protocol: In this experiment Streptococcus thermophilus […] (DSM 4022) was sed for the determination of antibiotics in milk. Streptococcus thermophilus […] was grown using methods known per se. An amount of a solution of bromocresolpurple to give a final concentration of […] was added to fresh cow's milk. To part of the fresh cow's milk also an amount of penicillin G of 4 ppb added. The control sample contained no penicillin G. To the milk samples different amounts of Streptococcus thermophilus […] were added to give final concentrations between 10^7 and 10^9 CFU per ml. Immediately after preparation of the samples sterile tubes with a diameter of about 9 mm were filled with 0.3 ml of each milk sample (duplo). The tubes were immediately placed in a waterbath kept at 42° C. Observations were made after 30 minutes to 2 hours and 30 minutes. The time at which the colour of the agar medium became yellow was determined. As is shown in table 3, the test duration correlated with the amount of cells added to the milk without influencing the sensitivity of the test in a negative way.

| Structure (SMILES) | detectable amount of antibacterial compound (agar medium blue) [1] [I.U. per ml] | concentration detected in a milk sample ([2]; as little as 70 minutes, test organism more than 10^7 CFU per ml) [IU/ml] | concentration that can be detected ([2]; test type B, test duration of 70 minutes, milk) [I.U. per ml] | concentration detected in a milk sample ([2]; test unit of 0.3 ml agar solution in upright test tube of internal diameter 9 mm) [lU/ml] | concentration that can be detected ([3]; test duration of 80 minutes) [ppb] | concentration that can be detected ([3]; test duration of 90 minutes) [ppb] | concentration that can be detected [4] [ppb] |
| --- | --- | --- | --- | --- | --- | --- | --- |
| CC1(C)S[C@@H]2[C@H](NC(=O)Cc3ccccc3)C(=O)N2[C@H]1C(=O)O [penicillin G] | ≥ 0.003 | 0.003 | 0.003 | 0.003 | 3 | 3 | ≥ 4 |
| Nc1ccc(S(=O)(=O)Nc2ncccn2)cc1 [sulphadiazine] | – | – | – | – | – | 100 | – |
